Where two headings read alike, the source gives them in different places.
Molecular target: p97 ATPase WT (Homo sapiens, UniProt P55072)
Experiment: ADPGlo biochemical assay of p97 ATPase inhibition
Conditions: for effect of structural change on activity/potency (in words): p97 inhibition, versus indole NH / amide analogs

Sequence of p97 ATPase WT (P55072 whole entry): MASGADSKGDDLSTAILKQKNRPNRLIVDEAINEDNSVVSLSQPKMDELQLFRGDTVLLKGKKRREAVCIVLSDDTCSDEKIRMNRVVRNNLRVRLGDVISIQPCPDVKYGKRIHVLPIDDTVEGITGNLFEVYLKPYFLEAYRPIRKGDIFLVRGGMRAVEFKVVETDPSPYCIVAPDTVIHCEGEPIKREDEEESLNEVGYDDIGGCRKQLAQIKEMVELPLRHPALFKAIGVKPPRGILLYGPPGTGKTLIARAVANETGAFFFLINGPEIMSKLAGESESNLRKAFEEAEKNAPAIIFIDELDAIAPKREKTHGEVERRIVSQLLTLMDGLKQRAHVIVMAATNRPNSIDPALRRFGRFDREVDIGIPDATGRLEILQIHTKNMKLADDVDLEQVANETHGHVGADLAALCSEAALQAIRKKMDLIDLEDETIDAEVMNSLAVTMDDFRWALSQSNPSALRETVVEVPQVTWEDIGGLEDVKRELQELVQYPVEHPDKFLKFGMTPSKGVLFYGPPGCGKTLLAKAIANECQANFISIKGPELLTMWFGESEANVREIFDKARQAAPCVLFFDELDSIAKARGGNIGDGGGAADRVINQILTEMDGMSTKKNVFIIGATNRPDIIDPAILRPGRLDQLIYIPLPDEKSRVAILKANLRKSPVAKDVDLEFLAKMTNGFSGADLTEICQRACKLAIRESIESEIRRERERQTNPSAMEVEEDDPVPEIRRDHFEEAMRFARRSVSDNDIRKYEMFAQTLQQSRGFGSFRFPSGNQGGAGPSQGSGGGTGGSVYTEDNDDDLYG

SMILES | IC50 [nM] | further results
CC(C)N1CCN(CCNC2CCN(c3cccc(-c4cc5ccccc5n4C)c3)CC2)CC1 [UPCDC30201, N-(2-(4-Isopropylpiperazin-1-yl)ethyl)-1-(3-(1-methyl-1H-indol-2-yl)phenyl)piperidin-4-amine] | > 50000 | effect of structural change on activity/potency (in words): ablates
CC(C)N1CCN(CCNC2CCN(c3ccc4c(c3)-c3[nH]c5ccccc5c3CC4)CC2)CC1 [UPCDC30206, 1-(6,11-Dihydro-5H-benzo[a]carbazol-2-yl)-N-(2-(4-isopropylpiperazin-1-yl)ethyl)piperidin-4-amine] | 390 | –
CC(C)N1CCN(CCNC2CCN(c3cccc(-c4ccc5ccccc5c4)c3)CC2)CC1 [UPCDC30222, N-(2-(4-Isopropylpiperazin-1-yl)ethyl)-1-(3-(naphthalen-2-yl)phenyl)piperidin-4-amine] | 5200 | effect of structural change on activity/potency (in words): greatly diminishes
CC(C)N1CCN(CCNC2CCN(c3cccc(-c4cc5cc(F)ccc5[nH]4)c3)CC2)CC1 [UPCDC30245] | – | IC50 (read-out: ADPGlo IC50, 20 nM p97 ATPase WT, 100 μM ATP, repeated multiple times): 55 nM
CC(C)N1CCN(CCNC2CCN(c3cccc(-c4nc5ccccc5[nH]4)c3)CC2)CC1 [UPCDC30250, 1-(3-(1H-Benzo[d]imidazol-2-yl)phenyl)-N-(2-(4-isopropylpiperazin-1-yl)ethyl)piperidin-4-amine] | 38500 | reduction of binding affinity (benzimidazole versus indole): > 2 orders of magnitude
CC(C)N1CCN(CCNC2CCN(c3cccc(-c4cc5cc(C(N)=O)ccc5[nH]4)c3)CC2)CC1 [UPCDC30310, 2-(3-(4-((2-(4-Isopropylpiperazin-1-yl)ethyl)amino)piperidin-1-yl)phenyl)-1H-indole-5-carboxamide] | 100 | –
CC(C)N1CCN(CCNC2CCN(c3cccc(-c4cc5cc(C(=O)N(C)C)ccc5[nH]4)c3)CC2)CC1 [UPCDC30368, 2-(3-(4-((2-(4-Isopropylpiperazin-1-yl)ethyl)amino)piperidin-1-yl)phenyl)-N,N-dimethyl-1H-indole-5-carboxamide] | – | effect of structural change on activity/potency (in words): near loss of all potency

Second part, led by results:

IC50 [nM] | SMILES | further results
190 | CC(C)N1CCN(CCNC2CCN(c3cccc(-c4cc5cc(Cl)ccc5[nH]4)c3)CC2)CC1 [UPCDC30317, 1-(3-(5-Chloro-1H-indol-2-yl)phenyl)-N-(2-(4-isopropylpiperazin-1-yl)ethyl)piperidin-4-amine] | –
130 | COC(=O)c1ccc2[nH]c(-c3cccc(N4CCC(NCCN5CCN(C(C)C)CC5)CC4)c3)cc2c1 [UPCDC30341, Methyl 2-(3-(4-((2-(4-isopropylpiperazin-1-yl)ethyl)amino)piperidin-1-yl)phenyl)-1H-indole-5-carboxylate] | –
4000 | CC(C)N1CCN(CCNC2CCN(c3cccc(-c4cc5cnccc5[nH]4)c3)CC2)CC1 [UPCDC30345, 1-(3-(1H-Pyrrolo[3,2-c]pyridin-2-yl)phenyl)-N-(2-(4-isopropylpiperazin-1-yl)ethyl)piperidin-4-amine] | –
50 | Cc1ccc(N2CCC(NCCN3CCN(C(C)C)CC3)CC2)cc1-c1cc2cc(F)ccc2[nH]1 [UPCDC30346, 1-(3-(5-Fluoro-1H-indol-2-yl)-4-methylphenyl)-N-(2-(4-isopropylpiperazin-1-yl)ethyl)piperidin-4-amine] | –
87 | Cc1ccc(N2CCC(NCCN3CCN(C(C)C)CC3)CC2)cc1-c1cc2cc(C#N)ccc2[nH]1 [UPCDC30361, 2-(5-(4-((2-(4-Isopropylpiperazin-1-yl)ethyl)amino)piperidin-1-yl)-2-methylphenyl)-1H-indole-5-carbonitrile] | –
450 | CNC(=O)c1ccc2[nH]c(-c3cccc(N4CCC(NCCN5CCN(C(C)C)CC5)CC4)c3)cc2c1 [UPCDC30367, 2-(3-(4-((2-(4-Isopropylpiperazin-1-yl)ethyl)amino)piperidin-1-yl)phenyl)-N-methyl-1H-indole-5-carboxamide] | –
4740 | CC(C)N1CCN(CCNC2CCN(c3cccc(-c4cc5cc(F)cnc5[nH]4)c3)CC2)CC1 [UPCDC30381, 1-(3-(5-Fluoro-1H-pyrrolo[2,3-b]pyridin-2-yl)phenyl)-N-(2-(4-isopropylpiperazin-1-yl)ethyl)piperidin-4-amine] | –
